What was measured:
Type in all cases: functional
Settings in all cases: PC-9, 336 h, read-out: GI
PC-9 [1] = test: Growth inhibition of human PC9 cells grown under 3D anchorage-independent soft-agar conditions at 10 nM incubated for 14 days by alamar blue dye based assay relative to control
PC-9 [2] = test: Growth inhibition of human PC9 cells grown under 3D anchorage-independent soft-agar conditions at 3.33 nM incubated for 14 days by alamar blue dye based assay relative to control
PC-9 [3] = test: Growth inhibition of human PC9 cells grown under 3D anchorage-independent soft-agar conditions at 1.11 nM incubated for 14 days by alamar blue dye based assay relative to control
PC-9 [4] = test: Growth inhibition of human PC9 cells grown under 3D anchorage-independent soft-agar conditions at 0.37 nM incubated for 14 days by alamar blue dye based assay relative to control
PC-9 [5] = test: Growth inhibition of human PC9 cells grown under 3D anchorage-independent soft-agar conditions at 0.123 nM incubated for 14 days by alamar blue dye based assay relative to control

C=CC(=O)Nc1cccc(Oc2nc(Nc3ccc(N4CCN(C)CC4)cc3)nc3ccsc23)c1 [OLMUTINIB] gave an inhibition of growth at 0.01 µM (PC-9 [1]) of 69%, an inhibition of growth at 0.00333 µM (PC-9 [2]) of 35% and an inhibition of growth at 0.00111 µM (PC-9 [3]) of 1%. It also gave an inhibition of growth at 0.00037 µM (PC-9 [4]) of -3% and an inhibition of growth at 0.000123 µM (PC-9 [5]) of -3%.

Source: ChEMBL document CHEMBL4420081, “Novel benzylamino substituted quinazolines and derivatives as sos1 inhibitors” (2018)
